Measured values as given in US7728132B2, “Compositions for stabilizing chlorinated water to sunlight decomposition, and methods of preparation thereof” (Enviro Tech Chemical Services, Inc., priority 2007, dated 2010).

Columns and labels:
[1] = granules in pool water; cited from earlier work
[2] = Dispensing and dissolution of product in swimming pool; type: physicochemical; conditions: 5.85 lb dry solid in 20,000 gallon pool, recirculation pump running
Procedure: The gallon jugs of Examples 2 and 4 were taken to a residential swimming pool of 20,000 gallons estimated volume. The water temperature was 76° F. The sample of Example 2 was mildly shaken and then using a single motion, poured into the 8 foot deep end of the pool near the return pipe from the pump where the turbulence was high. […] Next the gallon jug of Example 4 was emptied into the pool in the same vicinity and same manner. […] The jug was rinsed clean with two aliquots of pool water.
Cyanuric acid wetcake (1405 lb) containing 66% solids is introduced to a 50 cubic foot stainless steel ribbon blender powered by dual 15 HP motors. Soft water (43.9 lb) is added while mixing in the blender. With further blending, solid sodium hydroxide microbeads (288.3 lb) are introduced over a three-minute period. The mixture becomes very hot as evidenced by the large amount of steam that escapes the reaction mixture into the atmosphere. The outside skin of the ribbon blender becomes too hot to touch and a temperature of 130° F. is measured with a digital infrared thermometer. […]
A one-gallon jug of Instant Pool Water Conditioner (Natural Chemistry Inc. of Norwalk, Conn.) was purchased from a local pool store. […] Using a pool brush, the undissolved material was readily dispersed and dissolved with a sweeping action. […]

[3] = as reported for prior-art products; cited from earlier work

Structure (SMILES): O=c1[nH]c(=O)[nH]c(=O)[nH]1 [cyanuric acid]
- time to dissolve [1]: several days

Structure (SMILES): O=c1[n-]c(=O)[nH]c(=O)[nH]1.[Na+] [Prospective Example 8, monosodium cyanurate]
- time until all is dissolved [2]: ≤ 30 min

Structure (SMILES): O=c1[n-]c(=O)[nH]c(=O)[nH]1.[Na+] [monosodium cyanurate]
- pH [3]: neutral
